Measured values reported in patent US6200962A, “Thionophosphate derivatives, process for their preparation and pharmaceutical compositions containing them” (priority 1994, dated 2001).

Columns and labels:
BSA = assay: BSA's cystine oxidation by NaOCl (DTNB); conditions: NaOCl 1 mM
Experimental: BSA (0.5 mg/ml) in Imi HEPES buffer pH=7.2(50 mM) was incubated with sodium hypochlorite (1 mM) for 15 min. The protein was dialyzed for 2 h against 2×500 vol of HEPES buffer to remove free sodium hypochlorite. 301 DTNB 0.015 M in water was then added to the protein solution and color was measured at 420 nm. AMTPs were added to the protein sample to protect it against sodium hypochlorite [Hazell and Stocker, ibid.].
BSA's tryptophan oxidation and BSA's cystine oxidation were the models for protein damage by NaOCl (FIG. 11 and FIG. 12 respectively). BSA fluorescence intensity decreased following oxidative stress of NaOCI (1 mM). […] Out of the three AMTP compounds the most lipophilic (A) was best in preventing the damage and provided 94% protection on the protein.

[1] = Lipid hydroperoxides in partially oxidized SUV liposomes; conditions: 5 mM, after 24 h
Experimental: SUV liposomes were prepared from egg lecitin at 10% lipid concentration in a 50 ml HEPES buffer pH=6.9 according to already published procedures [Lichtenberg, D. and Barenholz. Y. (1988) Methods of Biochemical Analysis 33:337-462].
Lipid hydroperoxides were monitored by a modified micromolar sensitive spectroscopic method [Siddiqi, A. M. and Tappel, A. L. (1955) Chemist Analyst 44:52]. 50λ of lipids (liposomes or emulsion) were dissolved in 1 ml ethanol. 50λ of 50% potassium iodide solution were then added and the mixture was incubated for half an hour in the dark. The developed color was read in a spectrophotometer at 400 nm.
SUV Liposomes (12.5 mM) with certain degrees of oxidation were incubated with 5 mM AMTP molecules for period of 24 h. Peroxidation number (PN) was measured with potassium iodide in ethanol. AMTPs were able to decompose lipid hvdroperoxide and to reduce the peroxidation number (PN).

[2] = Hydroxyl radical chemiluminescence method (H2O2, NTA-Fe2+, HRP); conditions: increasing concentrations
Experimental: Chemiluminescence (CL) was measured in mixtures of H2 O2, NTA-Fe^2+ and HRP (Horseradish peroxidase) systems in a LUMAC/3M BIOCONTER M2010 connected to a linear recorder as described [Ginsburg, I. et al. (1993) Inflammation 17:227-243]. The scavenging of hydroxyl radicals was done by various concentrations of AMTP (compound C dissolved in reaction buffer).
where A is the absorbance in the presence of a scavenger S (AMTPs) at a concentration [S] and A0 is the absorbance in the absence of a scavenger KDR =3.1*10^9 (reaction constant between deoxyribose and OH. radical) [Ebert, M., et al. (1965) Pulse Radiolysis, Academic Press, London] and [DR]=18 mM. […] Considering the fast reaction between H2 O2 and Fe^2+ --NTA and the slow reaction rate between AMTP and hydrogen peroxide as monitored in the ^31 P experiments (FIG. 5), the light decay may be exclusively attributed to hydroxyl radical scavenging.

Human skin fibroblasts = assay: Chromium release from fibroblasts, killing by streptolysin S and glucose oxidase; type: cell-based
Experimental: Human skin fibroblasts were kindly supplied by the Department for Human Genetics at Hadassa Hospital in Jerusalem. The cells were grown in D-MEM medium supplemented with glutamine, penicillin, and streptomycin and 10% fetal calf serum [Ginsburg, I. et al. (1992) Inflammation 16:519-538]. Radiolabeled cell monolayers were prepared by the addition of 10 μCi/ml of [^51 Cr]NaCrO4 (New England Nuclear) to […] of trypsinized cells grown in 75-ml tissue culture bottles. The cells were then dispensed into 24-well tissue culture plates (Nunc, Roskilde, Denmark) and grown to confluency in a CO2 incubator.
Hydrogen peroxide flux was generated by the addition of glucose oxidase (0.5 units/ml) to the tissue culture media. Streptolysin S (SLS) of Croup A Streptococci (17 hemolytic units/ml) was employed as a membrane damaging agent.
Culture monolayers were treated for 1 h with the agents listed above. The cultures were monitored periodically for changes in cell morphology. To assess cytotoxicity, the supernatant fluids were removed and centrifuged at 2000 rpm for 2 min. The solubilized radioactivity was then determined in a Contron gamma counter. The total radioactivity associated with untreated controls was solubilized by the addition of 1 ml of 1% Triton X-100. (AMTPs influence on SLS hemolytic activity and on glucose oxidase activity was also tested. No influences were observed).
Fibroblasts in culture were exposed to a synergistic killing mechanism (streptolysin S in combination with an oxidant glucose oxidase) in a D-MEM culture medium that contained 1 mg/ml of glucose (about 0.5-1 mM of H2 O2 was produced after 1 hour of incubation at 37° C.). This system caused about 60% chromium released within an hour. […] The positive controls were DMTU and catalase.

Sabra mice = assay: Toxicity study, i.p. injection; type: in vivo
Experimental: (§1) The toxicity of compound B was tested by injecting 75 mg/kg, 150 mg/kg, 300 mg/kg, 500 mg/kg, 700 mg/kg and 1000 mg/kg i.p. to groups of eight Sabra mice. In addition, a repetitive i.p. injection of 75 mg/kg/day over a period of two weeks was conducted on eight mice. The mice were monitored for mortality and for chances in their weight compared to a saline injected control group.
(§2) The toxicity of compound B was tested by injecting 75 mg/kg, 150 mg/kg, 300 mg/kg, 500 mg/kg, 700 mg/kg and 1000 mg/kg i.p. to groups of eight Sabra mice.

[3] = Toxicity study, i.p. injection; type: in vivo, Sabra mice; conditions: mouse, in vivo, ip, single, Sabra mice
Experimental: as §1, §2

## CCOP(=S)(NCCO)OCC [Compound B, 2-hydroxyamido diethyithionophosphate]
BSA
  protection of BSA's cystines: strong protection
[1]
  reduction of PN, comparative: more effective in reducing PN
[2]
  decay of light (hydroxyl radical scavenging): Dose dependent decay of light
Human skin fibroblasts
  prevention of cell damage, comparative: much more efficient than compound C
Human skin fibroblasts; concentrations of up to 20 mM, compound alone
  toxic effects on the cell: did not show any toxic effects
Human skin fibroblasts; concentrations up to 10 mM, 60 min
  protection against cell killing: 50-60%
Sabra mice; i.p., doses up to 500 mg/kg
  mortality: No mortality was observed
Sabra mice; i.p., up to 500 mg/kg, monitoring of 30 days, vs saline control
  changes in average weight: nor were there any significant changes
Sabra mice; repetitive i.p. 75 mg/kg/day, two weeks
  mortality or weight differentiation: did not lead to any mortality or weight differentiation
[3]
  LD50 at 720 h: ~700 mg/kg
